Data published in patent US7517523B2, “Anti-MIF antibodies” (Cytokine PharmaSciences, Inc., priority 1993, dated 2009).

What was measured:
Peritoneal Macrophages = assay: Steroid-induced MIF secretion by peritoneal macrophages; format: cell-based, mouse; conditions: 12 to 15 h
Description: Cells were incubated for 12 to 15 h with various steroids (at concentrations ranging from 10^−6M to 10^−14M).
Samples were resolved on 18% SDS polyacrylamide gels under reducing conditions and transferred onto nitrocellulose membrane (Schleicher and Schuell, Keene, N.H.) at 50 V and 150 mA for 16 h. Membranes were blocked with 500 mM NaCl, 50 mM Tris-Base, pH 7.5 buffer containing 5% nonfat dry milk and 0.05% Tween-20 and incubated first with polyclonal anti-rMIF serum and then with horseradish peroxidase-conjugated goat anti-rabbit IgG antibody (each diluted 1:1000 in 500 mM NaCl, 50 mM Tris-Base, pH 7.5 buffer with 1% BSA). […] Incubations were 1 h each. MIF was visualized by development with chloronaphtol/H2O2 or with TMB substrate.

RAW macrophages = assay: Inhibition of the macrophage MIF response to dexamethasone; format: cell-based, mouse; conditions: pretreatment and co-administration, 10^−6M
Description: RAW 264.7 murine macrophages were obtained from the American Type Culture Collection (Rockville, Md.). Cells were grown in RPMI 1640 medium (Gibco, Grand Island, N.Y.), 10% heat-inactivated fetal bovine serum (FBS) (HyClone, Logan, Utah), 50 μg/ml of carbenicillin and gentamicin. […] After 3 h of incubation at 37° C. in a humidified atmosphere with 5% CO2, nonadherent cells were removed and wells were washed twice with RPMI/1% FBS. In some experiments designed to test for inhibition of MIF release, test compounds were then added to the culture media. For example, the cells were pre-treated with 20α-dihydrocorticol at a final concentration of 10^−6M. Cells then were incubated for 12-15 h with various steroids at concentrations ranging from 10^−6M to […] (e.q., dexamethasone), along with the desired test compound (e.g., 20α-dihydrocortisol) if any. At the end of experiment, cell culture media were collected and centrifuged (10 min at 800 g). Cell-conditioned media were concentrated 10-fold by membrane filtration (10 kDa cut-off) (Centricon-10, Amicon, Beverly, N.Y.).
Samples were resolved on 18% SDS polyacrylamide gels under reducing conditions and transferred onto nitrocellulose membrane (Schleicher and Schuell, Keene, N.H.) at 50 V and 150 mA for 16 h. […]

[1] = system: Sprague-Dawley female rats; assay: Serum MIF after i.v. steroid injection; format: in vivo, rat; conditions: 10 mg/kg i.v., serum Western blotting
Description: Canulated Sprague-Dawley female rats were purchased from Zivic-Miller. Animals were housed with free access to food and water and were acclimatized for at least 2 days prior to experimentation. Rats were injected i.v. through the jugular vein with either dexamethasone (1, 10 or 20 mg/kg), or with RU38486 (mifepristone) (1 or 10 mg/kg), or with the two drugs together (both at 10 mg/kg, RU38486 was injected 15 min. before dexamethasone). Serum was collected 3, 6, and 9 hours post-steroids injection and analyzed by Western blotting with anti-MIF antibody.

AtT-20 pituitary cells = assay: MIF release from pituitary (AtT-20) cells (Western blotting); format: cell-based, mouse; conditions: 1-100 ng/ml
Description: AtT-20 cells were cultured for 24 hours in serum-free medium (enriched serum-free Joklik's medium from Gibco) containing various concentrations of LPS (E. coli LPS 0111:B4 from Sigma) at 0.5 μg/ml-50 μg/ml. […] This protein was transferred to polyvinylidene difluoride membrane and its primary N-terminal amino acid sequence was determined by automated gas-phase sequencing (Applied Biosystems).
MIF release from pituitary (AtT-20) cells was analyzed by Western blotting with anti-MIF antibody (FIG. 8). 1.5×10^5 pituitary cells were cultured serum-free for 18 h with different concentrations of LPS. After transfer, nitrocellulose membranes were incubated with rabbit anti-rMIF serum (1:1000 dilution) and bound antibody visualized with horseradish peroxidase-conjugated goat anti-rabbit antibody. 100 ng of rMIF was electrophoresed on the same gel for reference. Control supernatants (C) contained 1 μg/ml LPS that was added after removal of cells.

[2] = system: thioglycollate-elicited peritoneal macrophages; assay: MIF secretion by thioglycollate-elicited peritoneal macrophages stimulated with LPS or IFNγ plus LPS; format: cell-based, mouse; conditions: IFNγ 100 IU/ml given 1 h prior to LPS
Description: After 3 h of incubation at 37° C. in a humidified atmosphere with 5% CO2, nonadherent cells were removed and wells were washed twice with RPMI/1% FBS. Cells then were incubated for 12 h with LPS (at concentrations ranging from 1 pg/ml to 1 μg/ml) or with cytokines (1 or 10 ng/ml for TNFα, IL-1β, and IL-6, and 10, 100 or 1000 IU/ml for IFNγ) diluted in RPMI/1% FBS. For time-course experiments, conditioned media of parallel cultures were removed at 3, 6, 9, 12 and 15 h intervals after LPS stimulation. […] Cells were incubated for 12 h either with LPS or with IFNγ plus LPS. When co-stimulated with IFNγ and LPS, cells were first incubated for an hour with IFNγ (100 IU/ml) before addition of LPS at the indicated concentrations. At the end of each experiment, cell-culture media were collected, centrifuged (10 min at 800 g), and supplemented with PMSF (1 mM). Supernatants then were concentrated 10-fold by membrane filtration (10 kD cut-off) (Centricon-10, Amicon, Beverly, N.Y.). […]
For Western blotting, samples were resolved on 18% SDS polyacrylamide gels under reducing conditions and transferred onto nitrocellulose membrane (Schleicher and Schuell, Keene, N.H.) at 50 V and 150 mA for 16 h. […] Serum MIF bands were quantified by laser densitometry (Shimadzu FDU-3, CS-9000U, Braintree, Mass.). Faint densitometric signals in the MIF region were detected in most sera prior to LPS administration (0 h). […]

| Molecule | Range of Steroid Concentrations Inducing MIF in Peritoneal Macrophages (Peritoneal Macrophages) | MIF release from pituitary cells (AtT-20 pituitary cells) | other results |
| --- | --- | --- | --- |
| C[C@]12CCC(=O)C=C1CC[C@@H]1[C@@H]2[C@@H](O)C[C@@]2(C)[C@H]1CC[C@]2(O)[C@@H](O)CO [4-pregnene-11β,17α,20α,21-tetrol-3-one] | 10^−10 to 10^−14 M | – | Effect on the MIF response to dexamethasone (RAW macrophages): attenuates or abolishes |
| C[C@]12CCC(=O)C=C1CC[C@@H]1[C@@H]2[C@@H](O)C[C@]2(C=O)[C@@H](C(=O)CO)CC[C@@H]12 [Aldosterone] | 10^−8 to 10^−14 M | – | – |
| C[C@@H]1C[C@H]2[C@@H]3CCC4=CC(=O)C=C[C@]4(C)[C@@]3(F)[C@@H](O)C[C@]2(C)[C@@]1(O)C(=O)CO [Dexamethasone] | 10^−8 to 10^−12 M | – | – |
| C[C@]12CCC(=O)C=C1CC[C@@H]1[C@@H]2[C@@H](O)C[C@@]2(C)[C@H]1CC[C@]2(O)C(=O)CO [Hydrocortisone] | 10^−8 to 10^−16 M | – | – |
| CC#C[C@]1(O)CC[C@H]2[C@@H]3CCC4=CC(=O)CCC4=C3[C@@H](c3ccc(N(C)C)cc3)C[C@@]21C [RU-38486 (mifepristone), mifepristone] | – | – | MIF secretion in vivo [1]: induced MIF secretion |
| C[C@]12CC[C@H]3[C@@H](CCC4=CC(=O)CC[C@@]43C)[C@@H]1CC[C@@H]2O [Testosterone] | 10^−8 to 10^−14 M | – | – |
| IFNγ: recombinant murine IFNγ (protein, UniProt P01580 23-155, looked up) Interferon gamma: HGTVIESLESLNNYFNSSGIDVEEKSLFLDIWRNWQKDGDMKILQSQIISFYLRLFEVLKDNQAISNNISVIESHLITTFFSNSKAKKDAFMSIAKFEVNNPQVQRQAFNELIRVVHQLLPESSLRKRKRSRC | – | not released | Increase in LPS responsiveness on co-stimulation [2]: > 1000 fold |
| IL-1β: recombinant murine IL-1β (protein, UniProt P10749 118-269, looked up) Interleukin-1 beta: VPIRQLHYRLRDEQQKSLVLSDPYELKALHLNGQNINQQVIFSMSFVQGEPSNDKIPVALGLKGKNLYLSCVMKDGTPTLQLESVDPKQYPKKKMEKRFVFNKIEVKSKVEFESAEFPNWYISTSQAEHKPVFLGNNSGQDIIDFTMESVSS | – | not released | – |
| IL-6: recombinant murine IL-6 (protein, UniProt P08505 25-211, looked up) Interleukin-6: FPTSQVRRGDFTEDTTPNRPVYTTSQVGGLITHVLWEIVEMRKELCNGNSDCMNNDDALAENNLKLPEIQRNDGCYQTGYNQEICLLKISSGLLEYHSYLEYMKNNLKDNKKDKARVLQRDTETLIHIFNQEVKDLHKIVLPTPISNALLTDKLESQKEWLRTKTIQFILKSLEEFLKVTLRSTRQT | – | not released | – |
| TNFα: recombinant murine TNFα (protein) LRSSSQNSSDKPVAHVVANHQVEEQLEWLSQRANALLANGMDLKDNQLVVPADGLYLVYSQVLFKGQGCPDYVLLTHTVSRFAISYQEKVNLLSAVKSPCPKDTPEGAELKPWYEPIYLGGVFQLEKGDQLSAEVNLPKYLDFAESGQVYFGVIAL | – | not released | – |
